# Source: PubChem BioAssay AID192 (DTP/NCI, 2004)
# Several values for one entry are separate records, joined by “and”; a condition that tells them apart may be missing. Identical values can stand only once. Inconclusive results and toxic doses are left out.
# Test system: BDF1 mice, B16 melanoma ip, median survival T/C
# Experiment: NCI In Vivo Anticancer Drug Screen. Data for tumor model B16 Melanoma (intraperitoneal) in B6D2F1 (BDF1) mice
# Conditions: endpoint: median survival time, higher = longer survival
# Outline: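 Transplantable tumor model; survival or tumor size measured; reported as T/C, treated over vehicle control.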
# [1] = dose: 100.0 mg/kg/injection, schedule: Q01DX009 (ip), vehicle: Klucel (hydroxypropylcellulose) (HPC)
# [2] = dose: 200.0 mg/kg/injection, schedule: Q01DX009 (ip), vehicle: Klucel (hydroxypropylcellulose) (HPC)
# [3] = dose: 6.25 mg/kg/injection, schedule: Q01DX009 (ip), vehicle: saline with Tween-80
# [4] = dose: 12.5 mg/kg/injection, schedule: Q01DX009 (ip), vehicle: saline with Tween-80
# [5] = dose: 25.0 mg/kg/injection, schedule: Q01DX009 (ip), vehicle: saline with Tween-80
# [6] = dose: 50.0 mg/kg/injection, schedule: Q01DX009 (ip), vehicle: saline with Tween-80
# [7] = dose: 200.0 mg/kg/injection, schedule: Q01DX009 (ip), vehicle: saline with Tween-80
# [8] = dose: 6.25 mg/kg/injection, schedule: Q01DX009 (ip), vehicle: Klucel (hydroxypropylcellulose) (HPC)
# [9] = dose: 6.25 mg/kg/injection, schedule: Q01DX009 (ip), vehicle: saline
# [10] = dose: 12.5 mg/kg/injection, schedule: Q01DX009 (ip), vehicle: Klucel (hydroxypropylcellulose) (HPC)
# [11] = dose: 12.5 mg/kg/injection, schedule: Q01DX009 (ip), vehicle: saline
# [12] = dose: 25.0 mg/kg/injection, schedule: Q01DX009 (ip), vehicle: Klucel (hydroxypropylcellulose) (HPC)
# [13] = dose: 50.0 mg/kg/injection, schedule: Q01DX009 (ip), vehicle: Klucel (hydroxypropylcellulose) (HPC)
# [14] = dose: 100.0 mg/kg/injection, schedule: Q04DX003 (ip), vehicle: saline with Tween-80
# [15] = dose: 25.0 mg/kg/injection, schedule: Q04DX003 (ip), vehicle: saline with Tween-80
# [16] = dose: 50.0 mg/kg/injection, schedule: Q04DX003 (ip), vehicle: saline with Tween-80
structure (smiles),measurement,setting,value
O=C(O)c1cccc2c(=O)c3ccccc3sc12,T/C,[1],100 % of control
same,T/C,[2],100 % of control
same,T/C,"dose: 400.0 mg/kg/injection, schedule: Q01DX009 (ip), vehicle: Klucel (hydroxypropylcellulose) (HPC)",93 % of control
OCN(CO)c1nc(N(CO)CO)nc(N(CO)CO)n1,T/C,[3],97 % of control
same,T/C,[4],100 % of control
same,T/C,[5],94 % of control
same,T/C,[6],92 % of control
same,T/C,[7],90 % of control
CC12CCC(OC3OC(CO)C(OC4OC(CO)C(O)C(O)C4O)C(O)C3O)CC1CCC1C2CCC2(C)C(C3=CC(=O)OC3)CCC12O (stereo not given),T/C,"dose: 6.0 mg/kg/injection, schedule: Q01DX009 (ip), vehicle: saline",102 % of control
same,T/C,"dose: 12.0 mg/kg/injection, schedule: Q01DX009 (ip), vehicle: saline",114 % of control
same,T/C,"dose: 24.0 mg/kg/injection, schedule: Q01DX009 (ip), vehicle: saline",102 % of control
same,T/C,"dose: 48.0 mg/kg/injection, schedule: Q01DX009 (ip), vehicle: saline",92 % of control
C[n+]1ccc(Nc2ccc(NC(=O)c3ccc(Nc4cc[n+](C)c5ccc(N)cc45)cc3N)cc2)cc1,T/C,"dose: 1.0 mg/kg/injection, schedule: Q01DX009 (ip), vehicle: saline with Tween-80",98 % of control
same,T/C,"dose: 1.0 mg/kg/injection, schedule: Q02DX009 (ip), vehicle: Klucel (hydroxypropylcellulose) (HPC)",103 % of control and 105 % of control
same,T/C,"dose: 2.0 mg/kg/injection, schedule: Q01DX009 (ip), vehicle: saline with Tween-80",105 % of control
same,T/C,"dose: 2.0 mg/kg/injection, schedule: Q02DX009 (ip), vehicle: Klucel (hydroxypropylcellulose) (HPC)",109 % of control and 113 % of control
same,T/C,"dose: 4.0 mg/kg/injection, schedule: Q01DX009 (ip), vehicle: saline with Tween-80",109 % of control
same,T/C,"dose: 4.0 mg/kg/injection, schedule: Q02DX009 (ip), vehicle: Klucel (hydroxypropylcellulose) (HPC)",101 % of control and 106 % of control
same,T/C,[8],109 % of control
same,T/C,[9],104 % of control
same,T/C,"dose: 8.0 mg/kg/injection, schedule: Q01DX009 (ip), vehicle: saline with Tween-80",106 % of control
same,T/C,"dose: 8.0 mg/kg/injection, schedule: Q02DX009 (ip), vehicle: Klucel (hydroxypropylcellulose) (HPC)",108 % of control and 110 % of control
same,T/C,[10],105 % of control
same,T/C,[11],102 % of control
same,T/C,"dose: 16.0 mg/kg/injection, schedule: Q01DX009 (ip), vehicle: saline with Tween-80",106 % of control
same,T/C,"dose: 16.0 mg/kg/injection, schedule: Q02DX009 (ip), vehicle: Klucel (hydroxypropylcellulose) (HPC)",109 % of control and 113 % of control
same,T/C,[12],89 % of control
same,T/C,"dose: 32.0 mg/kg/injection, schedule: Q02DX009 (ip), vehicle: Klucel (hydroxypropylcellulose) (HPC)",92 % of control and 97 % of control
Nc1ccccc1SC1CC(=O)N(c2ccc(I)cc2)C1=O (stereo not given),T/C,[4],100 % of control
same,T/C,[12],108 % of control
same,T/C,[13],97 % of control
same,T/C,[6],88 % of control
same,T/C,[1],88 % of control and 100 % of control
CC1CN1P(=O)(N1CC1C)N1CC1C (stereo not given),T/C,[9],120 % of control
same,T/C,[11],100 % of control and 112 % of control
same,T/C,"dose: 25.0 mg/kg/injection, schedule: Q01DX009 (ip), vehicle: saline",113 % of control
same,T/C,"dose: 25.0 mg/kg/injection, schedule: Q04DX003 (ip), vehicle: saline",113 % of control
same,T/C,"dose: 50.0 mg/kg/injection, schedule: Q04DX003 (ip), vehicle: saline",120 % of control
same,T/C,"dose: 100.0 mg/kg/injection, schedule: Q04DX003 (ip), vehicle: saline",93 % of control
CC1(O)CC2CCC1C2 (stereo not given),T/C,[14],102 % of control
same,T/C,"dose: 200.0 mg/kg/injection, schedule: Q04DX003 (ip), vehicle: saline with Tween-80",102 % of control
same,T/C,"dose: 400.0 mg/kg/injection, schedule: Q04DX003 (ip), vehicle: saline with Tween-80",100 % of control
O=C1N[C@@H]2C(=C[C@H](O)[C@@H](O)[C@H]2O)c2cc3c(c(O)c21)OCO3,T/C,"dose: 2.5 mg/kg/injection, schedule: Q01DX009 (ip), vehicle: saline with Tween-80",111 % of control
CC(C)NC(=O)OCc1c(COC(=O)NC(C)C)c(-c2ccc(Cl)c(Cl)c2)n2c1CCC2,T/C,"dose: 1.56 mg/kg/injection, schedule: Q01DX009 (ip), vehicle: distilled water + Tween-80",102 % of control
same,T/C,"dose: 2.34 mg/kg/injection, schedule: Q01DX009 (ip), vehicle: other",123 % of control
same,T/C,"dose: 3.11 mg/kg/injection, schedule: Q01DX009 (ip), vehicle: distilled water + Tween-80",118 % of control
same,T/C,"dose: 3.12 mg/kg/injection, schedule: Q01DX009 (ip), vehicle: distilled water + Tween-80",120 % of control
same,T/C,"dose: 4.69 mg/kg/injection, schedule: Q01DX009 (ip), vehicle: saline with Tween-80",183 % of control
same,T/C,"dose: 9.38 mg/kg/injection, schedule: Q01DX009 (ip), vehicle: other",169 % of control
same,T/C,"dose: 9.38 mg/kg/injection, schedule: Q01DX009 (ip), vehicle: saline with Tween-80",173 % of control
same,T/C,"dose: 12.5 mg/kg/injection, schedule: Q01DX009 (ip), vehicle: distilled water + Tween-80",168 % of control
same,T/C,"dose: 14.4 mg/kg/injection, schedule: Q01DX009 (ip), vehicle: distilled water + Tween-80",179 % of control
same,T/C,"dose: 18.75 mg/kg/injection, schedule: Q01DX009 (ip), vehicle: other",197 % of control
same,T/C,"dose: 18.75 mg/kg/injection, schedule: Q01DX009 (ip), vehicle: saline with Tween-80",239 % of control
same,T/C,"dose: 25.0 mg/kg/injection, schedule: Q01DX009 (ip), vehicle: distilled water + Tween-80",200 % of control
same,T/C,"dose: 37.5 mg/kg/injection, schedule: Q01DX009 (ip), vehicle: saline with Tween-80",245 % of control
same,T/C,"dose: 40.0 mg/kg/injection, schedule: Q01DX009 (ip), vehicle: distilled water + Tween-80",103 % of control
same,T/C,"dose: 50.0 mg/kg/injection, schedule: Q01DX009 (ip), vehicle: distilled water + Tween-80",100 % of control
same,T/C,"dose: 75.0 mg/kg/injection, schedule: Q01DX009 (ip), vehicle: saline with Tween-80",215 % of control
COc1cc([N+](=O)[O-])c2ncccc2c1,T/C,[1],115 % of control
same,T/C,[2],110 % of control
O=[N+]([O-])c1cc(F)cc([N+](=O)[O-])c1O,T/C,[10],124 % of control
same,T/C,[12],103 % of control
same,T/C,[13],96 % of control
O=c1ssc(=Nc2ccccc2)n1-c1ccccc1,T/C,[10],102 % of control
same,T/C,[12],102 % of control
same,T/C,[13],100 % of control
same,T/C,[1],106 % of control
same,T/C,[2],91 % of control
CC(C)=CN1CCCCC1,T/C,[4],101 % of control
same,T/C,[5],105 % of control
same,T/C,[15],104 % of control
same,T/C,[6],108 % of control
same,T/C,[16],109 % of control
same,T/C,[14],90 % of control
same,T/C,[7],86 % of control
CN1CCc2cc3c(cc2C(=O)Cc2ccc4c(c2C1)OCO4)OCO3,T/C,[5],115 % of control
same,T/C,[15],117 % of control
same,T/C,[6],112 % of control
same,T/C,[16],114 % of control
same,T/C,"dose: 100.0 mg/kg/injection, schedule: Q01DX009 (ip), vehicle: saline with Tween-80",105 % of control
same,T/C,[14],94 % of control
C[C@]12CCC(=O)C=C1[C@@H](F)C[C@@H]1[C@@H]2[C@@H](O)C[C@@]2(C)[C@H]1CC[C@]2(O)C(=O)CO,T/C,"dose: 25.0 mg/kg/injection, schedule: Q01DX009 (sc), vehicle: steriod suspending solution",95 % of control
same,T/C,"dose: 50.0 mg/kg/injection, schedule: Q01DX009 (sc), vehicle: steriod suspending solution",97 % of control
same,T/C,"dose: 100.0 mg/kg/injection, schedule: Q01DX009 (sc), vehicle: steriod suspending solution",101 % of control
COC1=CC(=O)C(C2CC(=O)c3c(O)cc(O)cc3O2)=CC1=O (stereo not given),T/C,"dose: 3.13 mg/kg/injection, schedule: Q01DX009 (ip), vehicle: saline with Tween-80",102 % of control
same,T/C,[3],91 % of control
same,T/C,[4],89 % of control
COc1cc2c(cc1OC)C1CC(=O)C(CC(C)C)CN1CC2 (stereo not given),T/C,[8],100 % of control
same,T/C,[12],100 % of control
same,T/C,[13],95 % of control
same,T/C,[1],97 % of control
N#CCc1ccccc1S(=O)(=O)O,T/C,"dose: 100.0 mg/kg/injection, schedule: Q01DX009 (ip), vehicle: saline",103 % of control
same,T/C,"dose: 200.0 mg/kg/injection, schedule: Q01DX009 (ip), vehicle: saline",104 % of control
same,T/C,"dose: 400.0 mg/kg/injection, schedule: Q01DX009 (ip), vehicle: saline",104 % of control
